From PMC5218480 (PLoS ONE, 2017)

Tested on: MV-4-11 cells
Test: Gene expression microarray analysis (Affymetrix PrimeView) and GSEA
Type: cell-based, human
Parameters: RFU PODN (11730768_x_at) / Fold change /veh PODN (11730768_x_at) / RFU LINC00158 (11744669_a_at) / Fold change /veh LINC00158 (11744669_a_at) / RFU DUSP10 (11751237_a_at) / Fold change /veh DUSP10 (11751237_a_at) / RFU ID3 (11757404_x_at) / Fold change /veh ID3 (11757404_x_at) / RFU PLEKHG5 (11737974_s_at) / Fold change /veh PLEKHG5 (11737974_s_at) / RFU LRRC4B (11730491_at) / Fold change /veh LRRC4B (11730491_at) / RFU GIMAP4 (11747438_a_at) / Fold change /veh GIMAP4 (11747438_a_at) / RFU KRT8 (11758183_x_at) / Fold change /veh KRT8 (11758183_x_at) / RFU CNN1 (11734310_a_at) / Fold change /veh CNN1 (11734310_a_at) / RFU VPS37D (11726825_at) / Fold change /veh VPS37D (11726825_at) / RFU C10orf10 (11716522_x_at) / Fold change /veh C10orf10 (11716522_x_at) / RFU KIR2DL2 /// KIR2DL4 /// KIR2DL5A /// KIR2DL5B /// KIR2DS1 /// KIR2DS2 /// KIR2DS3 /// KIR2DS4 /// KIR3DL3 /// KIR3DL3 /// KIR3DS1 (11738374_at) / Fold change /veh KIR2DL2 /// KIR2DL4 /// KIR2DL5A /// KIR2DL5B /// KIR2DS1 /// KIR2DS2 /// KIR2DS3 /// KIR2DS4 /// KIR3DL3 /// KIR3DL3 /// KIR3DS1 (11738374_at) / RFU C1QL1 (11718748_at) / Fold change /veh C1QL1 (11718748_at) / RFU TMPRSS4 (11747572_a_at) / Fold change /veh TMPRSS4 (11747572_a_at) / RFU HAMP (11756126_x_at) / Fold change /veh HAMP (11756126_x_at) / RFU RNFT2 (11725882_a_at) / Fold change /veh RNFT2 (11725882_a_at) / RFU NR4A2 (11747474_a_at) / Fold change /veh NR4A2 (11747474_a_at) / RFU ABCC12 (11746883_a_at) / Fold change /veh ABCC12 (11746883_a_at) / RFU TMEM136 (11760407_x_at) / Fold change /veh TMEM136 (11760407_x_at) / RFU CLDN22 /// WWC2 (11732394_at) / Fold change /veh CLDN22 /// WWC2 (11732394_at) / RFU HLA-DPB1 (11760878_x_at) / Fold change /veh HLA-DPB1 (11760878_x_at) / RFU SPINT1 (11716480_a_at) / Fold change /veh SPINT1 (11716480_a_at) / RFU GAP43 (11754022_s_at) / Fold change /veh GAP43 (11754022_s_at) / RFU A4GNT (11735810_at) / Fold change /veh A4GNT (11735810_at) / RFU PRB3 (11715151_x_at) / Fold change /veh PRB3 (11715151_x_at) / RFU TUBB4B (11761932_at) / Fold change /veh TUBB4B (11761932_at) / RFU CAPN14 (11732068_a_at) / Fold change /veh CAPN14 (11732068_a_at) / RFU TMCC2 (11721928_a_at) / Fold change /veh TMCC2 (11721928_a_at) / RFU IRGQ (11745062_a_at) / Fold change /veh IRGQ (11745062_a_at) / RFU FAM174B (11720279_a_at) / Fold change /veh FAM174B (11720279_a_at) / RFU TMPRSS4 (11748680_a_at) / Fold change /veh TMPRSS4 (11748680_a_at) / RFU FAM212B (11763350_a_at) / Fold change /veh FAM212B (11763350_a_at) / RFU PLEKHG5 (11743358_a_at) / Fold change /veh PLEKHG5 (11743358_a_at) / RFU ZSCAN30 (11745921_a_at) / Fold change /veh ZSCAN30 (11745921_a_at) / RFU CMKLR1 (11741424_a_at) / Fold change /veh CMKLR1 (11741424_a_at) / RFU LOC101060620 /// MAPK8IP1 (11723275_at) / Fold change /veh LOC101060620 /// MAPK8IP1 (11723275_at) / RFU SPTSSB (11747773_x_at) / Fold change /veh SPTSSB (11747773_x_at) / RFU PRSS12 (11739890_at) / Fold change /veh PRSS12 (11739890_at) / RFU BIN1 (11741810_x_at) / Fold change /veh BIN1 (11741810_x_at) / RFU WNT11 (11732464_a_at) / Fold change /veh WNT11 (11732464_a_at) / RFU C10orf10 (11716521_a_at) / Fold change /veh C10orf10 (11716521_a_at) / RFU C5orf56 (11738089_at) / Fold change /veh C5orf56 (11738089_at) / RFU CYB561 (11721691_x_at) / Fold change /veh CYB561 (11721691_x_at) / RFU ANKRD19P (11752326_a_at) / Fold change /veh ANKRD19P (11752326_a_at) / RFU OR2T12 /// OR2T33 /// OR2T8 (11738714_s_at) / Fold change /veh OR2T12 /// OR2T33 /// OR2T8 (11738714_s_at) / RFU VCAN (11748164_a_at) / Fold change /veh VCAN (11748164_a_at) / RFU JSRP1 (11732532_at) / Fold change /veh JSRP1 (11732532_at) / RFU KRTAP10-11 (11738290_x_at) / Fold change /veh KRTAP10-11 (11738290_x_at) / RFU MYO3A (11730013_a_at) / Fold change /veh MYO3A (11730013_a_at) / RFU EBF3 (11725865_a_at) / Fold change /veh EBF3 (11725865_a_at) / RFU CAMK2N1 (11719241_x_at) / Fold change /veh CAMK2N1 (11719241_x_at) / RFU C5orf56 (11738088_a_at) / Fold change /veh C5orf56 (11738088_a_at) / RFU OLFML3 (11715873_a_at) / Fold change /veh OLFML3 (11715873_a_at) / RFU LOC100653217 /// NTM (11731650_a_at) / Fold change /veh LOC100653217 /// NTM (11731650_a_at) / RFU MAPK11 (11762145_a_at) / Fold change /veh MAPK11 (11762145_a_at) / RFU FIZ1 (11724087_x_at) / Fold change /veh FIZ1 (11724087_x_at) / RFU OASL (11726364_x_at) / Fold change /veh OASL (11726364_x_at) / RFU SOX15 (11748057_x_at) / Fold change /veh SOX15 (11748057_x_at) / RFU CD79A (11719716_a_at) / Fold change /veh CD79A (11719716_a_at) / RFU HIST1H1D (11736915_at) / Fold change /veh HIST1H1D (11736915_at) / RFU CASKIN2 (11723855_a_at) / Fold change /veh CASKIN2 (11723855_a_at) / RFU LOC730098 (11760151_x_at) / Fold change /veh LOC730098 (11760151_x_at) / RFU OR4N2 (11742367_at) / Fold change /veh OR4N2 (11742367_at) / RFU PRRT2 (11749266_a_at) / Fold change /veh PRRT2 (11749266_a_at) / RFU SNX32 (11753110_a_at) / Fold change /veh SNX32 (11753110_a_at) / RFU CDHR5 (11726645_a_at) / Fold change /veh CDHR5 (11726645_a_at) / RFU RCAN1 (11760418_a_at) / Fold change /veh RCAN1 (11760418_a_at) / RFU FAM167A (11723789_a_at) / Fold change /veh FAM167A (11723789_a_at) / RFU FAM26E (11764081_at) / Fold change /veh FAM26E (11764081_at) / RFU ISYNA1 (11749810_s_at) / Fold change /veh ISYNA1 (11749810_s_at) / RFU ACY1 (11761880_at) / Fold change /veh ACY1 (11761880_at) / RFU 11764098_at / Fold change /veh 11764098_at / RFU SAMD14 (11745864_x_at) / Fold change /veh SAMD14 (11745864_x_at) / RFU NPB (11741838_a_at) / Fold change /veh NPB (11741838_a_at) / RFU TMPRSS6 (11731388_a_at) / Fold change /veh TMPRSS6 (11731388_a_at) / RFU KRTAP10-2 (11738614_at) / Fold change /veh KRTAP10-2 (11738614_at) / RFU ARHGAP8 /// PRR5-ARHGAP8 (11727945_x_at) / Fold change /veh ARHGAP8 /// PRR5-ARHGAP8 (11727945_x_at) / RFU KRTAP5-7 /// NADSYN1 (11734609_at) / Fold change /veh KRTAP5-7 /// NADSYN1 (11734609_at) / RFU RASL12 (11751679_a_at) / Fold change /veh RASL12 (11751679_a_at) / RFU CDKN2B (11736163_a_at) / Fold change /veh CDKN2B (11736163_a_at) / RFU PRF1 (11729649_at) / Fold change /veh PRF1 (11729649_at) / RFU, ZNF638 /// ZNF638-IT1 / Fold change vs veh, ZNF638 /// ZNF638-IT1 / RFU, PANK3 / Fold change vs veh, PANK3 / RFU, SH3YL1 / Fold change vs veh, SH3YL1 / RFU, ZEB2 / Fold change vs veh, ZEB2 / RFU, NRIP1 / Fold change vs veh, NRIP1 / RFU, PTTG1IP / Fold change vs veh, PTTG1IP / RFU, CAPN2 / Fold change vs veh, CAPN2 / RFU, MED14 / Fold change vs veh, MED14 / RFU, SNORA58 / Fold change vs veh, SNORA58 / RFU, C1orf63 / Fold change vs veh, C1orf63 / RFU, LRRFIP1 / Fold change vs veh, LRRFIP1 / RFU, NDUFAF7 / Fold change vs veh, NDUFAF7 / RFU, SLC12A2 / Fold change vs veh, SLC12A2 / RFU, IBTK / Fold change vs veh, IBTK / RFU, ESF1 / Fold change vs veh, ESF1 / Fold change vs veh, TMEM50B / RFU, TAOK1 / Fold change vs veh, TAOK1 / RFU, ACBD3 / Fold change vs veh, ACBD3 / RFU, TMA16 / Fold change vs veh, TMA16 / RFU, RWDD3 / Fold change vs veh, RWDD3 / RFU, BCAT1 / Fold change vs veh, BCAT1 / RFU, EDEM3 / Fold change vs veh, EDEM3 / RFU, TMEM33 / Fold change vs veh, TMEM33 / RFU, WDR75 / Fold change vs veh, WDR75 / RFU, AHCTF1 / Fold change vs veh, AHCTF1 / RFU, TFRC / Fold change vs veh, TFRC / RFU, ZDHHC17 / Fold change vs veh, ZDHHC17 / RFU, NOM1 / Fold change vs veh, NOM1 / RFU, ARL8B / Fold change vs veh, ARL8B / RFU, ZBTB11 / Fold change vs veh, ZBTB11 / RFU, TAMM41 / Fold change vs veh, TAMM41 / RFU, KIAA1704 /// LOC100996395 / Fold change vs veh, KIAA1704 /// LOC100996395 / RFU, ING1 / Fold change vs veh, ING1 / RFU, TRMT61B / Fold change vs veh, TRMT61B / RFU, FUBP3 / Fold change vs veh, FUBP3 / RFU, TP53 / Fold change vs veh, TP53 / RFU, TNKS2 / Fold change vs veh, TNKS2 / RFU, ZFP14 / Fold change vs veh, ZFP14 / RFU, ACTR2 / Fold change vs veh, ACTR2 / RFU, PPP3R1 / Fold change vs veh, PPP3R1 / RFU, PIK3R1 / Fold change vs veh, PIK3R1 / RFU, HNRNPA1 / Fold change vs veh, HNRNPA1 / RFU, RNF170 / Fold change vs veh, RNF170 / RFU, ZNF28 / Fold change vs veh, ZNF28 / RFU, RNGTT / Fold change vs veh, RNGTT / RFU, OGT / Fold change vs veh, OGT / RFU, BRD1 / Fold change vs veh, BRD1 / RFU, MARS / Fold change vs veh, MARS / RFU, ZNF655 / Fold change vs veh, ZNF655 / RFU, FAHD1 / Fold change vs veh, FAHD1 / RFU, BDP1 / Fold change vs veh, BDP1 / RFU, LRRCC1 / Fold change vs veh, LRRCC1 / RFU, ARID1A / Fold change vs veh, ARID1A / RFU, ZNF146 / Fold change vs veh, ZNF146 / RFU, ZNF330 / Fold change vs veh, ZNF330 / RFU, GPN3 / Fold change vs veh, GPN3 / RFU, C9orf123 / Fold change vs veh, C9orf123 / RFU, N4BP2L2 / Fold change vs veh, N4BP2L2 / RFU, ARFIP1 / Fold change vs veh, ARFIP1 / RFU, FAM179B / Fold change vs veh, FAM179B / RFU, BCL10 / Fold change vs veh, BCL10 / RFU, UHRF1BP1L / Fold change vs veh, UHRF1BP1L / RFU, BET1 / Fold change vs veh, BET1 / RFU, CNOT2 / Fold change vs veh, CNOT2 / RFU, ZNF268 / Fold change vs veh, ZNF268 / Fold change vs veh, ZNF507 / RFU, DGCR2 / Fold change vs veh, DGCR2 / RFU, WDSUB1 / Fold change vs veh, WDSUB1 / Fold change vs veh, HSP90B1 /// MIR3652 / RFU, ADSS / Fold change vs veh, ADSS / RFU, GK / Fold change vs veh, GK / RFU, ZNF148 / Fold change vs veh, ZNF148 / RFU, TAF9 / Fold change vs veh, TAF9 / RFU, SLC1A5 / Fold change vs veh, SLC1A5 / RFU, SLMO2 / Fold change vs veh, SLMO2 / RFU, ABCC4 / Fold change vs veh, ABCC4 / RFU, LOC101060439 /// RAP1B / Fold change vs veh, LOC101060439 /// RAP1B / RFU, RFX7 / Fold change vs veh, RFX7 / RFU, GTPBP10 / Fold change vs veh, GTPBP10 / RFU, CNEP1R1 / Fold change vs veh, CNEP1R1 / RFU, BIVM-ERCC5 /// ERCC5 / Fold change vs veh, BIVM-ERCC5 /// ERCC5 / RFU, ILF3 / Fold change vs veh, ILF3 / RFU 11762660_at / Fold change /veh 11762660_at / RFU VCAN (11757783_s_at) / Fold change /veh VCAN (11757783_s_at) / RFU DDX43 (11728927_at) / Fold change /veh DDX43 (11728927_at) / RFU KRT8 (11758188_x_at) / Fold change /veh KRT8 (11758188_x_at) / RFU NKD1 (11759106_at) / Fold change /veh NKD1 (11759106_at) / RFU SRD5A1 (11742802_a_at) / Fold change /veh SRD5A1 (11742802_a_at) / RFU TPSAB1 /// TPSB2 (11721975_s_at) / Fold change /veh TPSAB1 /// TPSB2 (11721975_s_at) / RFU GSTM3 (11746129_a_at) / Fold change /veh GSTM3 (11746129_a_at) / RFU IL23R (11737362_x_at) / Fold change /veh IL23R (11737362_x_at) / RFU TMEM51 (11727254_a_at) / Fold change /veh TMEM51 (11727254_a_at) / RFU PIWIL2 (11732686_x_at) / Fold change /veh PIWIL2 (11732686_x_at) / RFU ORM1 (11744905_x_at) / Fold change /veh ORM1 (11744905_x_at) / RFU CCDC152 (11743942_at) / Fold change /veh CCDC152 (11743942_at) / RFU ECM1 (11717891_a_at) / Fold change /veh ECM1 (11717891_a_at) / RFU IL23R (11748794_a_at) / Fold change /veh IL23R (11748794_a_at) / RFU TNFAIP8L3 (11732012_x_at) / Fold change /veh TNFAIP8L3 (11732012_x_at) / RFU MBOAT4 (11741988_at) / Fold change /veh MBOAT4 (11741988_at) / RFU 11764193_at / Fold change /veh 11764193_at / RFU TMEM53 (11763286_at) / Fold change /veh TMEM53 (11763286_at) / RFU MAGEB2 (11727129_at) / Fold change /veh MAGEB2 (11727129_at) / RFU TMEM200A (11744735_a_at) / Fold change /veh TMEM200A (11744735_a_at) / RFU CCDC152 (11751479_a_at) / Fold change /veh CCDC152 (11751479_a_at) / RFU FAM211A (11726209_a_at) / Fold change /veh FAM211A (11726209_a_at) / RFU RGS16 (11746705_a_at) / Fold change /veh RGS16 (11746705_a_at) / RFU VCAN (11755009_s_at) / Fold change /veh VCAN (11755009_s_at) / RFU RHOB (11743442_s_at) / Fold change /veh RHOB (11743442_s_at) / RFU RGS16 (11720943_a_at) / Fold change /veh RGS16 (11720943_a_at) / RFU RGS16 (11720944_at) / Fold change /veh RGS16 (11720944_at) / RFU, VPS4B / Fold change vs veh, VPS4B / RFU, CREB1 / Fold change vs veh, CREB1 / RFU, DNAJC13 / Fold change vs veh, DNAJC13 / RFU, GNAQ / Fold change vs veh, GNAQ / RFU, CDK5R1 / Fold change vs veh, CDK5R1 / RFU, ZRANB3 / Fold change vs veh, ZRANB3 / RFU, CUL4A / Fold change vs veh, CUL4A / RFU, CCNY / Fold change vs veh, CCNY / RFU, UFL1 / Fold change vs veh, UFL1 / RFU, COG3 / Fold change vs veh, COG3 / RFU, DIAPH2 / Fold change vs veh, DIAPH2 / RFU, SKA2 / Fold change vs veh, SKA2 / RFU, AFF3 / Fold change vs veh, AFF3 / RFU, LMF1 / Fold change vs veh, LMF1 / RFU, IPO11 / Fold change vs veh, IPO11 / RFU, DFFB / Fold change vs veh, DFFB / RFU, FOXP1 / Fold change vs veh, FOXP1 / RFU, CARD8 / Fold change vs veh, CARD8 / RFU, STRN3 / Fold change vs veh, STRN3 / RFU, ADK / Fold change vs veh, ADK / RFU, RASSF2 / Fold change vs veh, RASSF2 / RFU, WIPF1 / Fold change vs veh, WIPF1 / RFU, LARP1B / Fold change vs veh, LARP1B / RFU, RASA1 / Fold change vs veh, RASA1 / RFU, RB1 / Fold change vs veh, RB1 / RFU, PPFIA1 / Fold change vs veh, PPFIA1 / RFU, MAT2A / Fold change vs veh, MAT2A / RFU, CCT5 / Fold change vs veh, CCT5 / RFU, WDR92 / Fold change vs veh, WDR92 / RFU, CUX1 / Fold change vs veh, CUX1 / RFU, TTC7A / Fold change vs veh, TTC7A / RFU, TMEM135 / Fold change vs veh, TMEM135 / RFU, DEPTOR / Fold change vs veh, DEPTOR / RFU, CPM / Fold change vs veh, CPM / RFU, DNAJB6 / Fold change vs veh, DNAJB6 / RFU, CACNA2D3 / Fold change vs veh, CACNA2D3 / RFU, DTX4 / Fold change vs veh, DTX4 / RFU, TFCP2 / Fold change vs veh, TFCP2 / RFU, GMCL1 /// GMCL1P1 / Fold change vs veh, GMCL1 /// GMCL1P1 / RFU, AEBP2 / Fold change vs veh, AEBP2 / RFU, SNHG1 /// SNORD22 /// SNORD25 /// SNORD26 /// SNORD27 /// SNORD28 /// SNORD29 /// SNORD31 / Fold change vs veh, SNHG1 /// SNORD22 /// SNORD25 /// SNORD26 /// SNORD27 /// SNORD28 /// SNORD29 /// SNORD31 / Fold change (Aza/veh), C12orf56 (ProbeSet 11735607_a_at) / Fold change (ACY-1035/veh), C12orf56 (ProbeSet 11735607_a_at) / Fold change (Aza/veh), FGFR1OP (ProbeSet 11751329_s_at) / Fold change (ACY-1035/veh), FGFR1OP (ProbeSet 11751329_s_at) / Fold change (Aza/veh), VPS36 (ProbeSet 11739960_a_at) / Fold change (ACY-1035/veh), VPS36 (ProbeSet 11739960_a_at) / RFU SYPL1 (11715823_x_at) / Fold change /veh SYPL1 (11715823_x_at) / RFU IGFBP7 (11715501_s_at) / Fold change /veh IGFBP7 (11715501_s_at) / RFU REEP3 (11722064_at) / Fold change /veh REEP3 (11722064_at) / RFU IGLL1 (11728026_x_at) / Fold change /veh IGLL1 (11728026_x_at): dose or concentration left out as unconfirmed
Details: ProbeSet 11733176_x_at; LIST B

Nc1ccc(-c2cccs2)cc1NC(=O)c1ccc2c(c1)cc(C1CC1)n2CCN1CCOCC1 [ACY-1035]
Fold change vs veh, ZNF507: 0.90
